What was measured:
primary cortical neurons = assay: axonal degeneration in primary cortical neurons; assay type: cell-based, mice; details: 10 μM of GSSSG
[1] = test system: intraepidermal nerve fibers of hind paws; assay: density of intraepidermal nerve fibers in hind paw skin (immunohistochemistry); assay type: in vivo, mice (C57BL/6J); details: for density of intraepidermal nerve fibers: paclitaxel alone
Experimental: Paclitaxel (Sigma-Aldrich) was dissolved with ethanol and cremophor (1:1) and diluted with normal saline (1:4). Peripheral neuropathy was induced in mice by intraperitoneal (i.p.) administration of 4 mg/kg paclitaxel every other day for a total of 4 injections (cumulative dose of 16 mg/kg), according to a previously described protocol. A stable, crystallized form of GSSSG was produced and provided by Kyowa Hakko Bio CO., LTD. GSSSG was pulverized and mixed in 0.5% methylcellulose. To evaluate the therapeutic effects of GSSSG in a model of PIPN, mice were randomly divided into three groups of 6. Mice were treated with: 1) paclitaxel alone; 2) paclitaxel and GSSSG; 3) or vehicle alone (control). Mice in groups 1 and 2 received paclitaxel as described above, while mice in the control group received the same volume of vehicle. The first dose of GSSSG was given within 1 hour after the first PTX injection. Treatment was administered as oral gavage for 28 days with GSSSG at 50 mg/kg/day (group 2) or 0.5% methylcellulose (groups 1 and 3). The dose of GSSSG was determined based on pilot studies. To determine the effect of GSSSG on the development of PIPN, behavioral tests to assess allodynia and hyperalgesia were conducted on all mice on days-1 (baseline), 7, 14, 21, and 28 after paclitaxel administration. Behavioral tests were performed by an investigator who was blinded to the treatment groups, as described in the next section. Density of intraepidermal nerve fiber (fibers/mm) of hind paws was calculated to evaluate peripheral nerve fiber damage by paclitaxel. Mice were deeply anesthetized with Isoflurane (4%) and euthanized by exsanguination on week 1 or week 4 after paclitaxel treatment for tissue harvest. […] Ten images per mouse (6 mice per group) were taken by fluorescence microscopy (Nikon Eclipse 80i, Nikon Instruments, Inc., Melville, NY), and four out of ten images were randomly selected. The density (fibers/mm basement membrane) was calculated as the number of intraepidermal nerve fiber divided by the length of basement membrane in accordance with the guideline.

mouse model of PIPN = assay: von Frey test of mechanical allodynia in mouse model of paclitaxel-induced peripheral neuropathy; assay type: in vivo, mice (C57BL/6J)
From the text: All animal protocols were approved by the Massachusetts General Hospital Institutional Animal Care and Use Committee. Animals were cared for in accordance with the guidelines established by the NIH and the International Association for the Study of Pain [16]. Male C57BL/6J mice (6-7 weeks old) were purchased from the Jackson Laboratory (Bar Harbor, ME, USA). The mice were housed in a 12-hour shift light-control environment from 7 am to […] with ad libitum access to food and water in our animal facility until the time of experiments.
Paclitaxel (Sigma-Aldrich) was dissolved with ethanol and cremophor (1:1) and diluted with normal saline (1:4). Peripheral neuropathy was induced in mice by intraperitoneal (i.p.) administration of 4 mg/kg paclitaxel every other day for a total of 4 injections (cumulative dose of 16 mg/kg), according to a previously described protocol. A stable, crystallized form of GSSSG was produced and provided by Kyowa Hakko Bio CO., LTD. GSSSG was pulverized and mixed in 0.5% methylcellulose. […] The dose of GSSSG was determined based on pilot studies. […]
Mechanical withdrawal thresholds were measured by the manual von Frey filament test to assess mechanical allodynia. […] The 50% threshold of a paw withdrawal response was calculated by the Up-down Reader based on the up and down method. […]

Structure (SMILES)	axonal degeneration in primary cortical neurons (primary cortical neurons)	paclitaxel-induced loss of intraepidermal nerve fibers ([1]; daily oral 50 mg/kg GSSSG in paclitaxel-treated mice, 4 weeks after starting paclitaxel)	mechanical allodynia (von Frey test) (mouse model of PIPN; GSSSG 50 mg/kg/day oral for 28 days in paclitaxel-treated mice, vs paclitaxel alone)	density of intraepidermal nerve fibers ([1]; 1 week after starting paclitaxel)	density of intraepidermal nerve fibers ([1]; 4 weeks after starting paclitaxel)	paw withdrawal threshold (von Frey test) (mouse model of PIPN; paclitaxel 4 mg/kg i.p. every other day, 4 injections, week 1 through week 4, vs control mice)
N[C@@H](CCC(=O)N[C@@H](CSSSC[C@H](NC(=O)CC[C@H](N)C(=O)O)C(=O)NCC(=O)O)C(=O)NCC(=O)O)C(=O)O [GSSSG, glutathione trisulfide]	prevented axonal degeneration	prevented paclitaxel-induced loss of intraepidermal nerve fibers	mitigated mechanical allodynia over the experimental period			
CC(=O)O[C@H]1C(=O)[C@@]2(C)[C@H]([C@H](OC(=O)c3ccccc3)[C@]3(O)C[C@H](OC(=O)[C@H](O)[C@@H](NC(=O)c4ccccc4)c4ccccc4)C(C)=C1C3(C)C)[C@]1(OC(C)=O)CO[C@@H]1C[C@@H]2O [paclitaxel, Paclitaxel, reference compound]				not at 1 week	decreased the density of intraepidermal nerve fibers at 4 weeks	significantly lower paw withdrawal threshold than control mice

— patent publication US20260097091A1, “ADMINISTRATION OF GLUTATHIONE TRISULFIDE TO AMELIORATE PERIPHERAL NEUROPATHY” (The General Hospital Corporation, priority 2022, published 2026)
